Measured values reported in ChEMBL document CHEMBL5620426, “Discovery of 3-(1H-benzo[d]imidazole-2-yl)-1H-pyrazol-4 -amine derivatives as novel and potent syk inhibitors for the treatment of hematological malignancies” (Eur J Med Chem, 2023).
Values belong to the compound of their own block, whether it stands above or below them.

Tests used:
[1] = tested on: Ramos; experiment: Inhibition of […] in serum-starved human Ramos cells incubated for 1 hr followed by anti-human IgM F(ab)2 measured after 5 mins; format: functional, cell-based
[2] = tested on: MV4-11; experiment: Inhibition of cell viability in human MV4-11 cells incubated for 72 hrs by Cell Titer Glo assay; format: functional, cell-based; details: MV4-11, 72 h
[3] = Metabolic stability in human liver microsomes assessed as half life at […] incubated for 60 mins in presence of NADPH by LC-MS/MS analysis; format: ADME, Microsome
[4] = Metabolic stability in human liver microsomes assessed as intrinsic clearance at […] incubated for 60 mins in presence of NADPH by LC-MS/MS analysis; format: ADME, Microsome; details: read-out: CLH
[5] = target: T1, Tyrosine-protein kinase SYK (Homo sapiens, UniProt P43405); experiment: Inhibition of Syk (unknown origin) preincubated for 20 mins followed by 33P-gamma-ATP measured after 120 mins by HotSpot assay
[6] = target: T1, Tyrosine-protein kinase SYK; experiment: Inhibition of Syk (unknown origin) assessed as enzyme activity at 2 uM preincubated for 20 mins followed by 33P-gamma-ATP measured after 120 mins by HotSpot assay relative to control; set-up: scale not given: the % may be the effect or the level left; details: time 140.0 min
[7] = Clearance in fasted Sprague-Dawley rat at 1 mg/kg, iv measured for 24 hrs by LC-MS/MS analysis; format: ADME, organism-based; details: in vivo
[8] = AUC in fasted Sprague-Dawley rat at 1 mg/kg, iv measured for 24 hrs by LC-MS/MS analysis; format: ADME, organism-based; details: in vivo
[9] = Half life in fasted Sprague-Dawley rat at 1 mg/kg, iv measured for 24 hrs by LC-MS/MS analysis; format: ADME, organism-based; details: in vivo
[10] = C0 in fasted Sprague-Dawley rat at 1 mg/kg, iv measured for 24 hrs by LC-MS/MS analysis; format: ADME, organism-based; details: in vivo
[11] = Volume of distribution at steady state in fasted Sprague-Dawley rat at 1 mg/kg, iv measured for 24 hrs by LC-MS/MS analysis; format: ADME, organism-based; details: in vivo, read-out: Vdss
[12] = Half life in fasted Sprague-Dawley rat at 10 mg/kg, po measured for 24 hrs by LC-MS/MS analysis; format: ADME, organism-based; details: in vivo
[13] = Cmax in fasted Sprague-Dawley rat at 10 mg/kg, po measured for 24 hrs by LC-MS/MS analysis; format: ADME, organism-based; details: in vivo
[14] = target: T1, Tyrosine-protein kinase SYK; experiment: Inhibition of SYK in human Ramos cells assessed as decrease in PLC-gamma-2 phosphorylation incubated for 2 hrs by Western blot analysis; format: cell-based; details: dose <= 500.0 nM
[15] = tested on: SU-DHL-6; experiment: Antiproliferative activity against human SU-DHL-6 cells assessed as inhibition of cell viability incubated for 72 hrs by Cell Titer Glo assay; format: functional, cell-based; details: SU-DHL-6, 72 h
[16] = tested on: Daudi; experiment: Antiproliferative activity against human Daudi cells assessed as inhibition of cell viability incubated for 72 hrs by Cell Titer Glo assay; format: functional, cell-based
[17] = target: T1, Tyrosine-protein kinase SYK; experiment: Inhibition of SYK phosphorylation in human Ramos cells incubated for 2 hrs by Western blot analysis; format: cell-based; details: dose <= 500.0 nM
[18] = Tmax in fasted Sprague-Dawley rat at 10 mg/kg, po measured for 24 hrs by LC-MS/MS analysis; format: ADME, organism-based; details: in vivo
[19] = Toxicity in nude BALB/c mouse xenografted with human MV4-11 cells assessed as body weight loss at 1 mg/kg, iv qd for 21 days administered consecutively; format: organism-based; details: in vivo, 504 h, time 21 day
[20] = Toxicity in nude BALB/c mouse xenografted with human MV4-11 cells assessed as systemic cytotoxicity at 1 mg/kg, iv qd for 21 days administered consecutively; format: organism-based; details: in vivo, 504 h, time 21 day
[21] = AUC in fasted Sprague-Dawley rat at 10 mg/kg, po measured for 24 hrs by LC-MS/MS analysis; format: ADME, organism-based; details: in vivo
[22] = tested on: TMD8; experiment: Antiproliferative activity against human TMD8 cells assessed as inhibition of cell viability incubated for 72 hrs by Cell Titer Glo assay; format: functional, cell-based; details: TMD8, 72 h
[23] = Toxicity in nude BALB/c mouse xenografted with human MV4-11 cells assessed as animal mortality at 1 mg/kg, iv qd for 21 days administered consecutively; format: organism-based; details: in vivo, 504 h, time 21 day
[24] = tested on: MV4-11; experiment: Antitumor activity against human MV4-11 cells xenografted in nude BALB/c mouse assessed as tumor growth inhibition at 1 mg/kg, iv qd for 21 days administered consecutively relative to control; format: functional; details: MV4-11, 504 h, time 21 day, read-out: TGI
[25] = tested on: DOHH-2; experiment: Antiproliferative activity against human DOHH-2 cells assessed as inhibition of cell viability incubated for 72 hrs by Cell Titer Glo assay; format: functional, cell-based; details: DOHH-2, 72 h
[26] = Oral bioavailability in fasted Sprague-Dawley rat at 10 mg/kg measured for 24 hrs by LC-MS/MS analysis; format: ADME, organism-based; details: in vivo
[27] = tested on: Rec1; experiment: Antiproliferative activity against human REC1 cells assessed as inhibition of cell viability incubated for 72 hrs by Cell Titer Glo assay; format: functional, cell-based; details: Rec1, 72 h

SMILES: c1ccc2[nH]c(-c3n[nH]cc3NCc3ccncc3)nc2c1
IC50 [5]: 1780 nM

SMILES: Clc1ccc2[nH]c(-c3n[nH]cc3Nc3ncnc4[nH]ccc34)nc2c1
IC50 [5]: 172 nM

SMILES: c1cc(N2CCCCC2)c2nc(-c3n[nH]cc3Nc3ncnc4[nH]ccc34)[nH]c2c1
IC50 [5]: 58 nM

SMILES: Cc1nc(Cl)cc(Nc2c[nH]nc2-c2nc3ccccc3[nH]2)n1
IC50 [5]: 1220 nM

SMILES: Fc1ccc2[nH]c(-c3n[nH]cc3Nc3ncnc4[nH]ccc34)nc2c1
IC50 [5]: 33.6 nM

SMILES: Cc1ccc(CNc2c[nH]nc2-c2nc3ccccc3[nH]2)o1
Activity [6]: 60.5%

SMILES: CCNc1c[nH]nc1-c1nc2ccccc2[nH]1
IC50 [5]: 15800 nM

SMILES: CC(C)N1CCN(c2ccc3[nH]c(-c4n[nH]cc4Nc4ncnc5[nH]ccc45)nc3c2)CC1
clearance [7]: 33.3 mL/min/kg
half-life [12]: 3.79 h
Cmax [13]: 18.1 ng/mL
AUC at 24 h [8]: 514 ng·h/mL
IC50 [1]: 18 nM
half-life [9]: 6.4 h
C0 at 24 h [10]: 1240 ng/mL
inhibition [14]: Dose-Dependent Effect
IC50 [15]: 216 nM
IC50 [16]: 719 nM
inhibition [17]: Dose-Dependent Effect
Tmax [18]: 0.833 h
Activity [19]: Non-Toxic
Activity [20]: Non-Toxic
AUC at 24 h [21]: 78.8 ng·h/mL
IC50 [22]: 10.9 nM
IC50 [2]: 1.5 nM
Activity [23]: Non-Toxic
inhibition in vivo at 1 mg/kg [24]: 99.3%
IC50 [25]: 8.68 nM
half-life [3]: 1.88 h
microsomal CLint [4]: 15.4 µL/min/mg
bioavailability [26]: 1.5%
IC50 [27]: 34.3 nM
IC50 [5]: 0.52 nM
Vd [11]: 8.93 L/kg

SMILES: Nc1nccc(Nc2c[nH]nc2-c2nc3ccccc3s2)n1
IC50 [5]: 163 nM

SMILES: c1ccc(Nc2nccc(Nc3c[nH]nc3-c3nc4ccccc4[nH]3)n2)cc1
IC50 [5]: 687 nM

SMILES: c1ccc2[nH]c(-c3n[nH]cc3NC3CCNCC3)nc2c1
Activity [6]: 82.7%

SMILES: CC(C)(C)c1ccc2[nH]c(-c3n[nH]cc3Nc3ncnc4[nH]ccc34)nc2c1
IC50 [5]: 67.4 nM

SMILES: Nc1cc(Nc2c[nH]nc2-c2nc3ccccc3[nH]2)ncn1
IC50 [5]: 135 nM

Results, then the compound that gave them:

IC50 [1]: 29.8 nM
IC50 [2]: 3.3 nM
half-life [3]: 1.62 h
microsomal CLint [4]: 14.3 µL/min/mg
IC50 [5]: 8.4 nM
SMILES: COc1cccc2[nH]c(-c3n[nH]cc3Nc3ncnc4[nH]ccc34)nc12

IC50 [5]: 21.4 nM
SMILES: Cc1cc2nc(-c3n[nH]cc3Nc3ncnc4c3ccn4C)[nH]c2cc1C

IC50 [1]: 78.9 nM
IC50 [2]: 27.6 nM
IC50 [5]: 5.5 nM
SMILES: COCCOc1ccc2[nH]c(-c3n[nH]cc3Nc3ncnc4[nH]ccc34)nc2c1

IC50 [1]: 41.5 nM
IC50 [2]: 10.8 nM
half-life [3]: 0.288 h
microsomal CLint [4]: 79.9 µL/min/mg
IC50 [5]: 4.9 nM
SMILES: COc1ccc2[nH]c(-c3n[nH]cc3Nc3ncnc4[nH]ccc34)nc2c1

IC50 [1]: 78.5 nM
IC50 [2]: 36.1 nM
half-life [3]: 0.308 h
microsomal CLint [4]: 75.1 µL/min/mg
IC50 [5]: 8.6 nM
SMILES: CCN(CC)c1ccc2[nH]c(-c3n[nH]cc3Nc3ncnc4[nH]ccc34)nc2c1

IC50 [1]: 46.8 nM
IC50 [2]: 4.9 nM
half-life [3]: 1.41 h
microsomal CLint [4]: 16.4 µL/min/mg
IC50 [5]: 3 nM
SMILES: C[C@@H]1CN(c2ccc3[nH]c(-c4n[nH]cc4Nc4ncnc5[nH]ccc45)nc3c2)C[C@H](C)O1

clearance [7]: 51.7 mL/min/kg
AUC at 24 h [8]: 332 ng·h/mL
IC50 [1]: 49.5 nM
half-life [9]: 2.47 h
C0 at 24 h [10]: 763 ng/mL
IC50 [2]: 7.9 nM
half-life [3]: 1.75 h
microsomal CLint [4]: 13.2 µL/min/mg
IC50 [5]: 1.6 nM
Vd [11]: 6.99 L/kg
SMILES: CN1CCN(c2ccc3[nH]c(-c4n[nH]cc4Nc4ncnc5[nH]ccc45)nc3c2)CC1

IC50 [5]: 9.3 nM
SMILES: Cc1ccc2[nH]c(-c3n[nH]cc3Nc3ncnc4[nH]ccc34)nc2c1

IC50 [1]: 35.9 nM
IC50 [2]: 9.3 nM
half-life [3]: 1.45 h
microsomal CLint [4]: 15.9 µL/min/mg
IC50 [5]: 3.2 nM
SMILES: CN(C)CCN(C)c1ccc2[nH]c(-c3n[nH]cc3Nc3ncnc4[nH]ccc34)nc2c1

IC50 [1]: 61.4 nM
IC50 [2]: 19.7 nM
half-life [3]: 0.748 h
microsomal CLint [4]: 30.8 µL/min/mg
IC50 [5]: 2.7 nM
SMILES: CN(C)c1ccc2[nH]c(-c3n[nH]cc3Nc3ncnc4[nH]ccc34)nc2c1
